From ChEMBL document CHEMBL1949654, “Discovery of a Potent Pyrazolopyridine Series of γ-Secretase Modulators” (ACS Med Chem Lett, 2011) come the findings set out here.

A short description of series [1]: Drug uptake in CD rat brain at 30 mg/kg, po measured after 3 hrs. In kind it is ADME, organism-based. Set-up: dose 30 mg/kg, route oral. The following applies: read-out: Drug uptake.
For series [2], the system named is Rattus norvegicus. Briefly: Antialzheimer activity in CD rat assessed as reduction in amyloid beta (1 to 42) CSF level at 30 mg/kg, po measured after 3 hrs. It counts as functional.
The nature of series [3]: Inhibition of gamma secretase-mediated amyloid beta (1 to 42) production expressed in HEK293 cells overexpressing APP Swedish mutant after 5 hrs by immunoassay. It counts as cell-based.
Series [4] can be described thus: Drug uptake in CD rat plasma at 30 mg/kg, po measured after 3 hrs. In kind it is ADME, organism-based. Set-up: dose 30 mg/kg, route oral.
Series [5] can be described thus: Selectivity ratio of IC50 for gamma secretase-mediated amyloid beta total production to IC50 for gamma secretase-mediated amyloid beta (1 to 42) production.
Series [6] relates to Rattus norvegicus. The series can be described thus: Antialzheimer activity in CD rat assessed as reduction in amyloid beta (1 to 40) CSF level at 30 mg/kg, po measured after 3 hrs. It counts as functional, organism-based. Also noted: dose 30 mg/kg.
In series [7] the test system is Rattus norvegicus. Briefly: Antialzheimer activity in CD rat assessed as reduction in amyloid beta total CSF level at 30 mg/kg, po measured after 3 hrs. Set-up: dose 30 mg/kg. It counts as functional, organism-based.
Another series concerns HEK293. The series can be described thus: Inhibition of gamma-secretase expressed in HEK293 cells assessed as reduction in Notch cleavage up to 20 uM. In kind it is cell-based.
The species entered for a further series is Mus musculus. The series can be described thus: Inhibition of mouse gamma-secretase assessed as reduction in reduction in Hes-1 expression up to 20 uM.
The species named for a further series is Canis lupus familiaris. The series can be described thus: Inhibition of dog gamma-secretase assessed as reduction in reduction in Hes-1 expression up to 20 uM.
Series [8] has as its system P-glycoprotein. Briefly: Drug transport assessed as P-glycoprotein-mediated apical to basolateral permeability. It counts as ADME. The conditions noted are these: not told; read-out: permeability.
The test system of series [9] is P-glycoprotein. Briefly: Drug transport assessed as P-glycoprotein-mediated basolateral to apical permeability. The conditions noted are these: not told; read-out: permeability. It counts as ADME.
Series [10] has as its system P-glycoprotein. Briefly: Drug transport assessed as P-glycoprotein-mediated efflux ratio of compound transport from basolateral to apical side over apical to basolateral side. In kind it is ADME. The following applies: not told.

The source made the active and inactive calls. The calls are words filed in the database; no cut-off is given here.

Usually IC50 stands for the midpoint of a concentration-inhibition curve. Low readings indicate greater potency in that assay, high ones weaker potency in that assay. For orientation: efflux ratio means the permeability from basolateral to apical divided by that in the opposite direction, in the common usage. Consider `COc1cc(-c2nnc3n([C@@H](C)c4cc(F)cc(F)c4)cccc2-3)ccc1-n1cnc(C)c1`, for which the concentration at 3 h turned out to be 140 nM in [1] and 1960 nM in series [4]. Besides, the result with Rattus norvegicus [2] was inactive. Moreover, 0.117 µM corresponded to half-maximal inhibition in series [3] (IC50). For the same compound, the Ratio IC50 in series [5] was 94. Besides, the inhibition entry with Rattus norvegicus [6], in the series with Rattus norvegicus [7], in the series on HEK293, in the series filed under Mus musculus and in the series listed under Canis lupus familiaris was “inactive” in each case. The Papp A→B in the series on P-glycoprotein [8] was 8.5 ×10⁻⁶ cm/s. The Papp B→A in the series with P-glycoprotein [9] was 32.4 ×10⁻⁶ cm/s. Moreover, the efflux ratio in the series on P-glycoprotein [10] was found to be 3.85.

On to `COc1cc(-c2nnc3n([C@@H](C)c4ccc(F)cc4)cccc2-3)ccc1-n1cnc(C)c1`, for which the concentration at 3 h was determined as 170 nM in [1] and 2880 nM in series [4]. Moreover, the result in the series with Rattus norvegicus [2] was inactive. Also, the IC50 in series [3] turned out to be 0.097 µM. For the same compound, in series [5], the Ratio IC50 is 205. Moreover, the inhibition entry with Rattus norvegicus [6], in the series with Rattus norvegicus [7], in the series with HEK293, in the series listed under Mus musculus and in the series filed under Canis lupus familiaris was “inactive” throughout. In addition, in the series with P-glycoprotein [8], the Papp A→B came out at 0.9 ×10⁻⁶ cm/s. For the same compound, the Papp B→A in the series with P-glycoprotein [9] was found to be 31.4 ×10⁻⁶ cm/s. In addition, in the series on P-glycoprotein [10], the efflux ratio worked out at 33.8.
